The text below walks through data of patent publication US8003660B2, “Modulators of muscarinic receptors” (Vertex Pharmaceuticals Incorporated, priority 2006, dated 2011).

By EC50 is commonly meant the concentration at which the effect is half-maximal.

Assay type in all cases: cell-based
One test concerns the target T1, M1 muscarinic receptor (Homo sapiens, UniProt P11229).
T1 construct: expressed in transfected cells; host or cells: CHO (M1-CHO)
T1 sequence (P11229 1-460): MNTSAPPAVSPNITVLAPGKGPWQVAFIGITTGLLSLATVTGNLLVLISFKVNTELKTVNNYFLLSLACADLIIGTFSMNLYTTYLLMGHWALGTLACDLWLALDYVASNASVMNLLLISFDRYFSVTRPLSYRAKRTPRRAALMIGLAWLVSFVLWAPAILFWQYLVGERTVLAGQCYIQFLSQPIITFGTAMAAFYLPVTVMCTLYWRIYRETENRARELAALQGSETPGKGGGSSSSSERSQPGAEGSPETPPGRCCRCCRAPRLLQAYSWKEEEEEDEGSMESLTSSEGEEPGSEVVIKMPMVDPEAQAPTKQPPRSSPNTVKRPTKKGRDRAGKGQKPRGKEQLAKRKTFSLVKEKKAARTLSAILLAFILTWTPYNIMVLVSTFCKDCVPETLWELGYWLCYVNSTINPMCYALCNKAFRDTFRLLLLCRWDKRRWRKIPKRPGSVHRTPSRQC
The experiment in a line: Functional mobilization of intracellular calcium (FLIPR) in CHO cells expressing M1. As to conditions: for EC50: CHO cells expressing M1, FLIPR calcium; for Emax: CHO, 100% = maximum response obtained with the Carbachol control, read-out: M1 Efficacy. An outline of the steps: (§1)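 Calcium flux is read on FLIPR over 60 sec at 488/540 nm in muscarinic-receptor CHO lines. Antagonist mode adds carbachol at EC80 after 15 min compound preincubation or with simultaneous co-application. Agonist mode adds compound alone. Cells carry Fluo-3 or Calcium 3 dye in probenecid-containing pH 7.4 buffer, 0.5% DMSO final.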
(Calcium flux is commonly read through the fluorescence of an indicator in the cells.)

Another test deals with T2, M3 muscarinic receptor (Homo sapiens, UniProt P20309).
T2 construct: expressed in transfected cells; host or cells: CHO (M3-CHO)
T2 sequence (P20309 whole entry): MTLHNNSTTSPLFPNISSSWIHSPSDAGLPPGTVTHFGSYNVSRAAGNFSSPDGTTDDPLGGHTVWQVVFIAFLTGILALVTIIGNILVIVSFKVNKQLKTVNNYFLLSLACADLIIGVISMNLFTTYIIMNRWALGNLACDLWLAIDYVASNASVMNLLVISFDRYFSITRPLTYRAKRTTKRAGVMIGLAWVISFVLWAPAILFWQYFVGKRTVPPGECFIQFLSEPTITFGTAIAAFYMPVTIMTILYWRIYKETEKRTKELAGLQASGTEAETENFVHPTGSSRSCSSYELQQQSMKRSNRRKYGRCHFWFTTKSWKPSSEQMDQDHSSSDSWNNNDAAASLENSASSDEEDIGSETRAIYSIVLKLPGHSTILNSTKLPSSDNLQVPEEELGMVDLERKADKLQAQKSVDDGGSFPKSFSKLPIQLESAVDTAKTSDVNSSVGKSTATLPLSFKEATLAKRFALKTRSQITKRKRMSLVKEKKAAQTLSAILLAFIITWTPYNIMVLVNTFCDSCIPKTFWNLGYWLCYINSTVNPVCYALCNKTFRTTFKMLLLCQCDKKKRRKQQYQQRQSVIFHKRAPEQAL
The experiment in a line: Functional mobilization of intracellular calcium (FLIPR) in CHO cells expressing M3. Conditions: for EC50: CHO cells expressing M3, FLIPR calcium; for Emax: CHO, 100% = maximum response obtained with the Carbachol control, read-out: M3 Efficacy. In a few lines: as §1

A further test deals with T3, M2 muscarinic receptor (Homo sapiens, UniProt P08172).
T3 construct: expressed in transfected cells; host or cells: CHO (M2-CHO)
T3 sequence (P08172 1-466): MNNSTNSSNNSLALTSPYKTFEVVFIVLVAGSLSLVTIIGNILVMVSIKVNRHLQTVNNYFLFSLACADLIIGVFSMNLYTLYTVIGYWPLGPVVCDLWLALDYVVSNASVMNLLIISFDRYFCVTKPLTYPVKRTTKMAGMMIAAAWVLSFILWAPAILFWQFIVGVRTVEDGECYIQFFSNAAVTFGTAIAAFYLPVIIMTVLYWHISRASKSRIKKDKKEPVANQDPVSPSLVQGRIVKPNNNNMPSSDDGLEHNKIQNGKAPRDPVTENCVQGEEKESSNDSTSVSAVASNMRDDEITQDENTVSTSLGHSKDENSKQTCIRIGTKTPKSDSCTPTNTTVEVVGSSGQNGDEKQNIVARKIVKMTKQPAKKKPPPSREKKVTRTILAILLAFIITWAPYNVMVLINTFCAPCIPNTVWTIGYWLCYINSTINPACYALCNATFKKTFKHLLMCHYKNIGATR
The experiment in a line: Functional mobilization of intracellular calcium (FLIPR) in CHO cells expressing M2. Conditions: for EC50: CHO cells expressing M2, FLIPR calcium; for Emax: CHO, 100% = maximum response obtained with the Carbachol control, read-out: M2 Efficacy. An outline of the steps: as §1

The target in another test is T4, M4 muscarinic receptor (Homo sapiens, UniProt P08173).
T4 construct: expressed in transfected cells; host or cells: CHO (M4-CHO)
T4 sequence (P08173 1-479): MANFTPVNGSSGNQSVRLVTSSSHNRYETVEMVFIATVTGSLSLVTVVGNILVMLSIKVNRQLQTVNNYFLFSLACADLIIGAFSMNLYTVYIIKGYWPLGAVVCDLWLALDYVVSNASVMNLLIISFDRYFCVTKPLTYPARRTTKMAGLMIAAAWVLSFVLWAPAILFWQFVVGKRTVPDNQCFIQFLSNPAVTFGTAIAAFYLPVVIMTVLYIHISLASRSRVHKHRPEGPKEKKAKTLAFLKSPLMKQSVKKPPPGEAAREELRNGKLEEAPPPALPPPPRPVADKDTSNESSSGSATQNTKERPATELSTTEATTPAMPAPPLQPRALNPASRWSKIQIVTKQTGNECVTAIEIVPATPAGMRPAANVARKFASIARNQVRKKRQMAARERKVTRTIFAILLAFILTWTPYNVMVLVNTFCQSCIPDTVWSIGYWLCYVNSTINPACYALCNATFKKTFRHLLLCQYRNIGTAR
The experiment in a line: Functional mobilization of intracellular calcium (FLIPR) in CHO cells expressing M4. Conditions: for EC50: CHO cells expressing M4, FLIPR calcium; for Emax: CHO, 100% = maximum response obtained with the Carbachol control, read-out: M4 Efficacy. In a few lines:
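Recombinant CHO cells loaded with Fluo-3 AM or Calcium 3 dye in pH 7.4 buffer containing 1 mM probenecid, with 0.5% final DMSO. For agonism, compound is added directly. For inhibition, it is preincubated 15 min, or co-applied, before carbachol at EC80. FLIPR fluorescence (ex 488, em 540 nm) is recorded for 60 s.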

For the molecule `CCN(C(C)=O)[C@H]1CCC2(CCN(CCC(C)(C)C)CC2)c2cc(F)ccc21` [compound 77], the EC50 on M1 muscarinic receptor was below 2000 nM; at M3 muscarinic receptor, above 5 µM; on M2 muscarinic receptor, 2 to 5 µM; at M4 muscarinic receptor it was below 2000 nM. The Emax on M1 muscarinic receptor is 25 to 100%; on M3 muscarinic receptor it was below 25%; on M2 muscarinic receptor it was below 25%; at M4 muscarinic receptor it was 25 to 100%.

With `C[C@H](C(=O)N[C@@H]1CCC2(CCN(CCC(C)(C)C)CC2)c2cc(F)ccc21)N1CCCC1=O` [compound 78], the EC50 is below 2000 nM at M1 muscarinic receptor, above 5 µM on M3 muscarinic receptor, below 2 µM at M2 muscarinic receptor and below 2000 nM at M4 muscarinic receptor. Further, the Emax on M1 muscarinic receptor was 25 to 100%; at M3 muscarinic receptor, below 25%; on M2 muscarinic receptor it was 25 to 100%; on M4 muscarinic receptor it was 25 to 100%.

`CC(C)(C)CCN1CCC2(CC[C@H](NC(=O)Cc3cccnc3)c3ccc(F)cc32)CC1` [compound 79]: the EC50 on M1 muscarinic receptor is below 2000 nM; at M3 muscarinic receptor, above 5 µM; at M2 muscarinic receptor it was below 2 µM; on M4 muscarinic receptor it was below 2000 nM. For the same molecule, the Emax on M1 muscarinic receptor was 25 to 100%; on M3 muscarinic receptor, below 25%; at M2 muscarinic receptor, 25 to 100%; at M4 muscarinic receptor, 25 to 100%.

For the molecule `CC(C)CCN1CCC2(CC[C@H](NS(C)(=O)=O)c3ccccc32)CC1` [compound 80], the EC50 at M1 muscarinic receptor was below 2000 nM; at M3 muscarinic receptor, above 5 µM; on M2 muscarinic receptor, above 5 µM; on M4 muscarinic receptor it was below 2000 nM. In addition, the Emax at M1 muscarinic receptor was 25 to 100%; on M3 muscarinic receptor, below 25%; at M2 muscarinic receptor it was below 25%; at M4 muscarinic receptor it was 25 to 100%.

Turning to `CC(=O)N1CCC(C(=O)N[C@H]2CCC3(CCN(CCC(C)(C)C)CC3)c3cc(F)ccc32)CC1` [compound 81], the EC50 on M1 muscarinic receptor was 2000 to 5000 nM; on M3 muscarinic receptor it was above 5 µM; at M2 muscarinic receptor it was above 5 µM; at M4 muscarinic receptor, below 2000 nM. For the same molecule, the Emax at M1 muscarinic receptor was 25 to 100%; on M3 muscarinic receptor it was below 25%; on M2 muscarinic receptor it was below 25%; at M4 muscarinic receptor, 25 to 100%.

Consider `CC(=O)N1CCCC[C@@H]1C(=O)N[C@H]1CCC2(CCN(CCC(C)(C)C)CC2)c2cc(F)ccc21` [compound 82], for which the EC50 on M1 muscarinic receptor was below 2000 nM; at M3 muscarinic receptor, above 5 µM; on M2 muscarinic receptor, 2 to 5 µM; on M4 muscarinic receptor, below 2000 nM. Also, the Emax was 25 to 100% on M1 muscarinic receptor, below 25% at M3 muscarinic receptor, below 25% at M2 muscarinic receptor and 25 to 100% at M4 muscarinic receptor.

For the molecule `CC(=O)N1CCCC[C@H]1C(=O)N[C@H]1CCC2(CCN(CCC(C)(C)C)CC2)c2cc(F)ccc21` [compound 83], the EC50 at M1 muscarinic receptor was below 2000 nM; on M3 muscarinic receptor it was above 5 µM; on M2 muscarinic receptor it was above 5 µM; at M4 muscarinic receptor, below 2000 nM. For the same molecule, the Emax was 25 to 100% on M1 muscarinic receptor, below 25% on M3 muscarinic receptor, below 25% on M2 muscarinic receptor and 25 to 100% at M4 muscarinic receptor.

Turning to `CC(=O)N1CCC[C@H]1C(=O)N[C@@H]1CCC2(CCN(CCC(C)(C)C)CC2)c2ccccc21` [compound 84], the EC50 on M1 muscarinic receptor was 2000 to 5000 nM; on M3 muscarinic receptor it was above 5 µM; on M2 muscarinic receptor, below 2 µM; at M4 muscarinic receptor, below 2000 nM. Also, the Emax at M1 muscarinic receptor was 25 to 100%; on M3 muscarinic receptor, below 25%; at M2 muscarinic receptor it was 25 to 100%; on M4 muscarinic receptor, 25 to 100%.

Take `C[C@@H](O)CC(=O)N[C@H]1CCC2(CCN(CCC(C)(C)C)CC2)c2ccccc21` [compound 85]: the EC50 at M1 muscarinic receptor is below 2000 nM; at M3 muscarinic receptor, above 5 µM; on M2 muscarinic receptor, below 2 µM; at M4 muscarinic receptor it was below 2000 nM. The Emax on M1 muscarinic receptor was 25 to 100%; at M3 muscarinic receptor, below 25%; at M2 muscarinic receptor, 25 to 100%; at M4 muscarinic receptor, 25 to 100%.

For `CC(=O)N(C(C)C)[C@H]1CCC2(CCN(CCC(C)(C)C)CC2)c2cc(F)ccc21` [compound 86], the EC50 at M1 muscarinic receptor is below 2000 nM; at M3 muscarinic receptor it was above 5 µM; on M2 muscarinic receptor, above 5 µM; on M4 muscarinic receptor, below 2000 nM. In addition, the Emax at M1 muscarinic receptor is 25 to 100%; on M3 muscarinic receptor, below 25%; at M2 muscarinic receptor, below 25%; at M4 muscarinic receptor, 25 to 100%.

With `CC(=O)NC(C(=O)N[C@@H]1CCC2(CCN(CCC(C)(C)C)CC2)c2ccccc21)C(C)C` (stereo partly shown) [compound 87], the EC50 at M1 muscarinic receptor was above 5000 nM; at M3 muscarinic receptor, above 5 µM; on M2 muscarinic receptor, above 5 µM; at M4 muscarinic receptor, below 2000 nM. Moreover, the Emax on M1 muscarinic receptor was below 25%; at M3 muscarinic receptor, below 25%; at M2 muscarinic receptor it was below 25%; at M4 muscarinic receptor, 25 to 100%.

In the case of `CC(C)(C)CCN1CCC2(CC[C@H](NC(=O)CCOC(C)(C)C)c3ccccc32)CC1` [compound 88], the half-maximal effective concentration (EC50) at M1 muscarinic receptor was below 2000 nM; at M3 muscarinic receptor, above 5 µM; at M2 muscarinic receptor it was below 2 µM; on M4 muscarinic receptor, below 2000 nM. Besides, the Emax on M1 muscarinic receptor was 25 to 100%; on M3 muscarinic receptor it was below 25%; on M2 muscarinic receptor, 25 to 100%; on M4 muscarinic receptor, 25 to 100%.

As for `CC(C)CCN1CCC2(CCCc3ccccc32)CC1` [compound 89], the EC50 at M1 muscarinic receptor was above 5000 nM; at M3 muscarinic receptor it was above 5 µM; at M2 muscarinic receptor it was above 5 µM; on M4 muscarinic receptor it was below 2000 nM. The Emax is 25 to 100% on M1 muscarinic receptor, below 25% on M3 muscarinic receptor, below 25% on M2 muscarinic receptor and 25 to 100% on M4 muscarinic receptor.

For the molecule `CC(C)CCN1CCC2(CC[C@H](N3CCCC3=O)c3ccccc32)CC1` [compound 90], the EC50 was 2000 to 5000 nM on M1 muscarinic receptor, above 5 µM at M3 muscarinic receptor, above 5 µM on M2 muscarinic receptor and 2000 to 5000 nM on M4 muscarinic receptor. Moreover, the Emax on M1 muscarinic receptor is 25 to 100%; at M3 muscarinic receptor it was below 25%; on M2 muscarinic receptor, below 25%; at M4 muscarinic receptor, 25 to 100%.

As for `CC(C)(C)CCN1CCC2(CC[C@H](N3CCCC3=O)c3ccc(F)cc32)CC1` [compound 91], the EC50 at M1 muscarinic receptor is below 2000 nM; at M3 muscarinic receptor it was above 5 µM; on M2 muscarinic receptor, below 2 µM; at M4 muscarinic receptor, below 2000 nM. Moreover, the Emax on M1 muscarinic receptor is 25 to 100%; at M3 muscarinic receptor it was below 25%; at M2 muscarinic receptor, below 25%; on M4 muscarinic receptor, 25 to 100%.

For the molecule `CC(=O)CCC(=O)N[C@H]1CCC2(CCN(CCC(C)(C)C)CC2)c2cc(F)ccc21` [compound 92], the EC50 at M1 muscarinic receptor is below 2000 nM; at M3 muscarinic receptor, above 5 µM; on M2 muscarinic receptor, below 2 µM; at M4 muscarinic receptor it was below 2000 nM. The Emax on M1 muscarinic receptor is 25 to 100%; at M3 muscarinic receptor, below 25%; at M2 muscarinic receptor, 25 to 100%; at M4 muscarinic receptor, 25 to 100%.

As for `CC(C)(C)CCN1CCC2(CC[C@@H](NC(=O)CC3CCOCC3)c3ccc(F)cc32)CC1` [compound 93], the EC50 on M1 muscarinic receptor was 2000 to 5000 nM; on M3 muscarinic receptor, above 5 µM; at M2 muscarinic receptor, above 5 µM; on M4 muscarinic receptor, below 2000 nM. Moreover, the Emax at M1 muscarinic receptor was 25 to 100%; at M3 muscarinic receptor, below 25%; on M2 muscarinic receptor it was below 25%; at M4 muscarinic receptor, 25 to 100%.
